{"source": "patent US5968791A", "about": "“Plant lysophosphatidic acid acyltransferases” (Calgene, Inc., priority 1995, dated 1999)", "key": {"[1]": {"target": "T1, LPAAT of transformant 5511-5 (Cocos nucifera, UniProt Q42670)", "T1 construct": "crude P2 membranes, host LPAAT also present", "T1 sequence (Q42670 1-308)": "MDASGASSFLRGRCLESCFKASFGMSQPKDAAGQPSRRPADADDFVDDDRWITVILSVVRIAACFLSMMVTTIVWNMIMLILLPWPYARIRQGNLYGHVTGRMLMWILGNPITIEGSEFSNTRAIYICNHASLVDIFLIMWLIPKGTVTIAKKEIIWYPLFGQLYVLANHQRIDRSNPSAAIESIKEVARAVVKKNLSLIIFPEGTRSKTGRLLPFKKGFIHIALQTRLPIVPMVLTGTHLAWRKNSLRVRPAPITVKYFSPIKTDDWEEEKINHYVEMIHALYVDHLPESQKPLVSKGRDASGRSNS", "test": "LPAAT acyl-CoA specificity, P2 preparation of LPAAT-transformed line 5511-5", "format": "biochemical, Rapeseed", "details": "acyl-CoA donor varied at 5 μM, acceptor 12:0-LPA; 30 minute reaction", "experimental": "(§1) Detailed acyl-CoA chain-length specificity analysis of control P2 preparations and LPAAT-transformed line 5511-5 were determined as described above, using the original 30 minute reaction time. The acyl-CoA substrates for this analysis are present in methanol, and thus the assay also had the following modifications. The first solution placed in the assay vial was the volume of each radiolabeled acyl-CoA required for 5 μM final assay concentration. […] After mixing to redissolve the acyl-CoA off the vial wall, the reaction is started by addition of 25 μl of a 5-fold diluted P2 preparation and continued as before. Acyl-CoA substrates used in this analysis were 8:0, 10:0, 12:0, 14:0, 16:0, 18:0, and 18:1. The acceptor substrate in these assays was 12:0-LPA."}, "bay LPAAT": {"test_system": "bay LPAAT", "test": "LPAAT activity assay, California bay P2 membrane preparation", "format": "biochemical, Umbellularia californica", "details": "P2 membrane preparation; acyl-CoA donor varied, acceptor 12:0-LPA", "quoted_text": "To assay for LPAAT activity, the sample is incubated with lysophosphatidic acid (LPA) and acyl-coenzyme A (acyl-CoA) substrates in buffered solution. The acyl substituents of the two substrates are chosen to correspond with the specificity of the enzyme being measured. […] The acyl group of one substrate is radioactively labeled in order to detect the product formed. In the examples which follow the acyl substituent of the acyl-CoA substrate is radiolabeled with ^14 C in the carboxyl group. LPAAT activity results in transfer of this acyl group from the acyl-CoA \"donor\" substrate to the LPA \"acceptor\" substrate, converting the latter into the product, phosphatidic acid (PA). LPAAT activity is measured as the amount of radioactive product formed in a given assay time. The PA product is radioactive as a result of the transferred radiolabeled acyl group at the central carbon atom of the molecule, and the quantity of PA formed may be determined by measuring radioactivity of the PA fraction. For this measurement, the PA is first separated from the acyl-CoA substrate by solvent partitioning, or by thin-layer chromatography (TLC).\nA more accurate estimation of the LPAAT activity may be obtained by separating the PA product from these contaminants by TLC. The remaining organic phase is applied to a silica TLC plate. Ascending chromatography is carried out for 50 minutes, using the solvent mixture chloroform/pyridine/88% formic acid (50:30:7, v/v). After the plate has dried, the distribution of radioactivity is visualized and quantitated using an AMBIS radioanalytic imaging system (AMBIS Systems Inc., San Diego, Calif.). From prior application of standard lipid components the Rf of the PA is known. The radioactivity associated with the PA spot is expressed as a percentage of the total radioactivity of the assay sample loaded on the plate. This ratio provides an indication of the proportion of the scintillation counts which represent the PA product, and may be used to correct the counts to obtain the total PA radioactivity formed in the assay."}, "Rapeseed LPAAT": {"test_system": "Rapeseed LPAAT", "test": "LPAAT activity assay, rapeseed P2 membrane preparation", "format": "biochemical, Brassica napus", "details": "acyl-CoA donor varied, acceptor 12:0-LPA", "experimental": "To assay for LPAAT activity, the sample is incubated with lysophosphatidic acid (LPA) and acyl-coenzyme A (acyl-CoA) substrates in buffered solution. The acyl substituents of the two substrates are chosen to correspond with the specificity of the enzyme being measured. For example, to measure activity of an LPAAT having preference for medium-chain substrates, lauroyl-LPA (lauroyl-lysophosphatidic acid) and lauroyl-CoA may be used, to measure activity of an LPAAT preferring longer-chain acyl groups, oleoyl-LPA and oleoyl-CoA may be used, to measure activity of an LPAAT preferring very-long chain substrate, erucyl-LPA and erucyl-CoA may be used, and so on, depending upon the type of LPAAT to be tested. The acyl group of one substrate is radioactively labeled in order to detect the product formed. In the examples which follow the acyl substituent of the acyl-CoA substrate is radiolabeled with ^14 C in the carboxyl group. LPAAT activity results in transfer of this acyl group from the acyl-CoA \"donor\" substrate to the LPA \"acceptor\" substrate, converting the latter into the product, phosphatidic acid (PA). LPAAT activity is measured as the amount of radioactive product formed in a given assay time. The PA product is radioactive as a result of the transferred radiolabeled acyl group at the central carbon atom of the molecule, and the quantity of PA formed may be determined by measuring radioactivity of the PA fraction. For this measurement, the PA is first separated from the acyl-CoA substrate by solvent partitioning, or by thin-layer chromatography (TLC).\n20 μl of the sample to be assayed for LPAAT activity is mixed with 217.5 μl of an assay ingredient mixture in a 4-ml, screw-cap vial. […] The incubation takes place in a water bath at 30° C., for 20-30 minutes.\nTo stop the assay, 0.25 ml of 1M KCl in 0.2M H3 PO4 is added to the vial. At this point, 40 μl BSA (bovine serum albumin, fraction V) at 1 mg/ml are added, followed by 0.75 ml of a solution of 67 μg/ml unlabeled PA (acting as a \"carrier\" to facilitate partitioning) in chloroform/methanol (2:1, v/v). The chain lengths of the PA acyl groups are chosen to correspond to those used in the assay substrates. Upon thorough mixing of these components the radiolabeled PA product of the LPAAT reaction partitions into the organic phase and away from the unreacted acyl-CoA and LPA. The vial is centrifuged briefly at low speed to facilitate the separation of organic (lower) and aqueous (upper) phases. The aqueous phase is then removed and discarded. The total radioactivity extracted into the organic phase is determined by liquid scintillation counting; a 100 μl sample of the organic phase is transferred to a 20 ml scintillation vial and allowed to dry, and scintillation fluid (3-5 ml) is added to the vial. The radioactivity of the sample, after subtraction of the \"minus-enzyme\" or \"minus-LPA\" radioactivities, is taken as an approximate indication of the amount of PA formed in the LPAAT-catalyzed reaction and therefore of LPAAT activity.\nA more accurate estimation of the LPAAT activity may be obtained by separating the PA product from these contaminants by TLC. The remaining organic phase is applied to a silica TLC plate. […] After the plate has dried, the distribution of radioactivity is visualized and quantitated using an AMBIS radioanalytic imaging system (AMBIS Systems Inc., San Diego, Calif.). From prior application of standard lipid components the Rf of the PA is known. The radioactivity associated with the PA spot is expressed as a percentage of the total radioactivity of the assay sample loaded on the plate. This ratio provides an indication of the proportion of the scintillation counts which represent the PA product, and may be used to correct the counts to obtain the total PA radioactivity formed in the assay.\nA P2 membrane homogenate from immature embryos of developing rapeseed (Brassica napus) seeds is prepared essentially as described above, except as noted below."}, "control rapeseed LPAAT": {"test_system": "control rapeseed LPAAT", "test": "LPAAT acyl-CoA specificity, control P2 preparation", "format": "biochemical", "details": "acyl-CoA donor varied at 5 μM, acceptor 12:0-LPA; 30 minute reaction", "experimental": "as §1"}, "coconut LPAAT": {"target": "T2, coconut LPAAT (Cocos nucifera, UniProt Q42670)", "T2 sequence (Q42670 1-308)": "T1 sequence (Q42670 1-308)", "test": "Acyl-CoA specificity of coconut LPAAT expressed in E. coli (pCGN5505), membrane fractions", "format": "biochemical", "design": "the SalI/BamHI fragment of pCGN5504 containing the entire coconut LPAAT encoding region; made in house; host or cells: E. coli BL21(DE3), membrane fractions", "details": "acceptor 12:0-LPA", "experimental": "The samples are centrifuged at 12,000 g for 15 minutes. The resulting supernatant fractions are centrifuged for two hours at 134,000 g, and the pelleted membranes suspended in 50 mM HEPES, 200 mM NaCl, 20% (w/v) glycerol, 5 mM β-mercaptoethanol, pH 7.5. Membrane fractions are assayed for acyl-CoA substrate specificities with 12:0-LPA and various acyl-CoA species as described in Example 1. Membrane preparations from cultures of E. coli and from immature coconut endosperm are combined with soybean phospholipids and diluted in 1M NaCl in Buffer A to simulate the pre-assay conditions of the solubilized enzyme."}}}
{"compound": "CCCCCCCC/C=C\\CCCCCCCC(=O)SCCNC(=O)CCNC(=O)[C@H](O)C(C)(C)COP(=O)(O)OP(=O)(O)OC[C@H]1O[C@@H](n2cnc3c(N)ncnc32)[C@H](O)[C@@H]1OP(=O)(O)O", "note": "[18:1, oleoyl-CoA]", "values": [{"measurement": "Cpm PA Product, 5511-5", "setting": "[1]", "result": 8430, "unit": "Cpm"}, {"measurement": "LPAAT Activity from Bay", "setting": "bay LPAAT", "result": "5 pmol PA formed/30 min assay"}, {"measurement": "LPAAT Activity from Rapeseed", "setting": "Rapeseed LPAAT", "result": "218 pmol PA formed/30 min assay"}, {"measurement": "Cpm PA Product, Control", "setting": "control rapeseed LPAAT", "result": 7946, "unit": "Cpm"}]}
{"compound": "CCCCCCCC(=O)SCCNC(=O)CCNC(=O)[C@H](O)C(C)(C)COP(=O)(O)OP(=O)(O)OC[C@H]1O[C@@H](n2cnc3c(N)ncnc32)[C@H](O)[C@@H]1OP(=O)(O)O", "note": "[8:0]", "values": [{"measurement": "Cpm PA Product, 5511-5", "setting": "[1]", "result": 454, "unit": "Cpm"}, {"measurement": "utilization by E. coli expressed coconut LPAAT", "setting": "coconut LPAAT", "result": "some minor activity detectable"}, {"measurement": "LPAAT Activity from Bay", "setting": "bay LPAAT", "result": "13 pmol PA formed/30 min assay"}, {"measurement": "LPAAT Activity from Rapeseed", "setting": "Rapeseed LPAAT", "result": "2 pmol PA formed/30 min assay"}, {"measurement": "Cpm PA Product, Control", "setting": "control rapeseed LPAAT", "result": 149, "unit": "Cpm"}]}
{"compound": "CCCCCCCCCCCC(=O)SCCNC(=O)CCNC(=O)[C@H](O)C(C)(C)COP(=O)(O)OP(=O)(O)OC[C@H]1O[C@@H](n2cnc3c(N)ncnc32)[C@H](O)[C@@H]1OP(=O)(O)O", "note": "[12:0, lauroyl-CoA]", "values": [{"measurement": "Cpm PA Product, 5511-5", "setting": "[1]", "result": 9337, "unit": "Cpm"}, {"measurement": "utilization by E. coli expressed coconut LPAAT", "setting": "coconut LPAAT", "result": "most active"}, {"measurement": "LPAAT Activity from Bay", "setting": "bay LPAAT", "result": "14 pmol PA formed/30 min assay"}, {"measurement": "LPAAT Activity from Rapeseed", "setting": "Rapeseed LPAAT", "result": "79 pmol PA formed/30 min assay"}, {"measurement": "Cpm PA Product, Control", "setting": "control rapeseed LPAAT", "result": 1758, "unit": "Cpm"}]}
{"compound": "CCCCCCCCCC(=O)SCCNC(=O)CCNC(=O)[C@H](O)C(C)(C)COP(=O)(O)OP(=O)(O)OC[C@H]1O[C@@H](n2cnc3c(N)ncnc32)[C@H](O)[C@@H]1OP(=O)(O)O", "note": "[10:0]", "values": [{"measurement": "Cpm PA Product, 5511-5", "setting": "[1]", "result": 5648, "unit": "Cpm"}, {"measurement": "utilization by E. coli expressed coconut LPAAT", "setting": "coconut LPAAT", "result": "most active"}, {"measurement": "LPAAT Activity from Bay", "setting": "bay LPAAT", "result": "10 pmol PA formed/30 min assay"}, {"measurement": "LPAAT Activity from Rapeseed", "setting": "Rapeseed LPAAT", "result": "12 pmol PA formed/30 min assay"}, {"measurement": "Cpm PA Product, Control", "setting": "control rapeseed LPAAT", "result": 831, "unit": "Cpm"}]}
{"compound": "CCCCCCCCCCCCCCCC(=O)SCCNC(=O)CCNC(=O)[C@H](O)C(C)(C)COP(=O)(O)OP(=O)(O)OC[C@H]1O[C@@H](n2cnc3c(N)ncnc32)[C@H](O)[C@@H]1OP(=O)(O)O", "note": "[16:0]", "values": [{"measurement": "Cpm PA Product, 5511-5", "setting": "[1]", "result": 4569, "unit": "Cpm"}, {"measurement": "LPAAT Activity from Bay", "setting": "bay LPAAT", "result": "6 pmol PA formed/30 min assay"}, {"measurement": "LPAAT Activity from Rapeseed", "setting": "Rapeseed LPAAT", "result": "27 pmol PA formed/30 min assay"}, {"measurement": "Cpm PA Product, Control", "setting": "control rapeseed LPAAT", "result": 3034, "unit": "Cpm"}]}
{"compound": "CCCCCCCCCCCCCC(=O)SCCNC(=O)CCNC(=O)[C@H](O)C(C)(C)COP(=O)(O)OP(=O)(O)OC[C@H]1O[C@@H](n2cnc3c(N)ncnc32)[C@H](O)[C@@H]1OP(=O)(O)O", "note": "[14:0]", "values": [{"measurement": "Cpm PA Product, 5511-5", "setting": "[1]", "result": 5080, "unit": "Cpm"}, {"measurement": "utilization by E. coli expressed coconut LPAAT", "setting": "coconut LPAAT", "result": "most active"}, {"measurement": "LPAAT Activity from Bay", "setting": "bay LPAAT", "result": "5 pmol PA formed/30 min assay"}, {"measurement": "LPAAT Activity from Rapeseed", "setting": "Rapeseed LPAAT", "result": "16 pmol PA formed/30 min assay"}, {"measurement": "Cpm PA Product, Control", "setting": "control rapeseed LPAAT", "result": 1544, "unit": "Cpm"}]}
